Test results taken from patent US6653354B2, “NMDA antagonist comprising xenon” (priority 1999, dated 2003).
Entries after “also recorded” stand apart in the source; their conditions may differ.

Legend:
rats = assay: MAC in rats; format: in vivo; details: 37° C.
Method: (§1) The gaseous concentration of xenon which prevents a response to a painful stimulus (i.e. MAC) appears to vary among species, being 71% atm in humans (Cullen SC et al, Anesthesiology 1969, 31:305-309), 98% atm in rhesus monkeys (Whitehurst S L et al, J. Neurosurg. Anesthesiol. 1994, 6:275-279) and 161% atm in rats (Koblin D D et al, Anesth. Analg. 1998, 87:419-424). When these values are converted to free aqueous concentrations at 37° C. (Franks N P et al, Br. J. Anaesth. 1993, 71:65-76; Franks N P et al, Anesthesiology, 1996, 84:716-720) using an Ostwald water/gas partition coefficient of 0.0887 (Weathersby P K et al, Undersea Biomed. Res. 1980, 7:277-296), the values obtained are 2.5 mM, 3.4 mM and 5.6 mM for humans, monkeys and rats respectively, with the average value being 3.8 mM. For the experiments described herein, performed at room temperature, the concentration of xenon present in the standard test solution was 3.4 mM. […] This is illustrated with representative traces in FIG. 2.

[1] = test system: c Fos expression in arcuate nucleus of hypothalamus; assay: c Fos expression in arcuate nucleus after NMA (inhibition of synaptic plasticity in vivo); design: species or system Sprague Dawley female adult rats; details: 75% Xe + NMA 100 mg/kg s.c.
Text: With exposure to NMA neuronal activation is enhanced (E vs A) which is indicative of synaptic plasticity. In the presence of both Xenon (D) and MK 801 (B), synaptic plasticity induced by NMA is inhibited. […] This is sometimes referred to as long term potentiation, an example of synaptic plasticity. […] The attenuation of c Fos expression is a reflection of the inhibition of synaptic plasticity.

[2] = test system: glutamatergic synapses (NMDA receptor slow component, AMPA/KA receptor fast component) of hippocampal neurons; assay: Excitatory (glutamatergic) postsynaptic currents, voltage-clamped autaptic hippocampal neurons; format: cell-based, rat
Method: Hippocampal neurons were grown in culture using methods described previously (Segal M M et al, J. Neurophysiol. 1990, 64:1390-1399; Bekkers J M et al, Proc. Natl. Acad. Sci. U.S.A. 1991, 88:7834-7838; Mennerick S et al, J. Neurophysiol. 1995, 73:320-332). Briefly, hippocampi from Sprague Dawley rats (postnatal day 1-3) were dissected, roughly sliced and agitated in a papain-containing solution (20 units ml^−1) for 30 minutes at 37 EC. After washing with enzyme-free solution, the tissue was gently triturated with a fire-polished Pasteur pipette and the cells were plated out at a density of 8-10×10^4 cells ml^−1 and cultured (95% air/5% CO2) at 37° C. Glass coverslips used for culturing the cells were first coated with agarose (0.15% w/v) and then sprayed with a fine mist of poly-D-lysine (PDL) and collagen (0.1 mg ml^−1 PDL and 0.5 mg ml^−1 rat-tail collagen) from a glass micro-atomiser and sterilized by UV exposure. This produced micro-islands of permissive substrate with diameters of between 100 and 1000 μm. At 3-4 days after plating, when the glial cell layer was about 80% confluent, an anti-mitotic agent (cytosine β-D-arabinofuranoside, 5 μM) was added to arrest glial cell proliferation. Neuronal cultures were then allowed to mature for another 4-9 days. We used micro-islands which contained single isolated neurons whose axonal processes and dendritic trees formed multiple self-synapses (autapses). This procedure provided a large population of phenotypically identical monosynaptic connections.
The neurons were voltage-clamped using the whole-cell recording technique (Axopatch 200 amplifier, Axon Instruments, Foster City, Calif.). Electrodes were fabricated from borosilicate glass and typically had resistances of between 3-5 MΩ. Series resistance was compensated by 75-90%. Neurons were voltage-clamped at −60 mV, and synaptic responses were stimulated by a 2 ms depolarising pulse to +20 mV. […] For the synaptic measurements, data were sampled at 50 kHz, filtered at 20 kHz (−3 dB, 8-pole Bessel) and stored on a computer. The extracellular recording solution was (mM) 137 NaCl, 5 KCl, 3 CaCl2, 5 HEPES, 10 glucose, 0.001 glycine, 0.0001 strychnine-HCl, titrated to pH 7.3 with NaOH; and the intracellular (pipette) solution was (mM) 140 KCl, 4 NaCl, 0.5 EGTA, 2 MgATP, 10 HEPES, titrated to pH 7.25 with KOH.
Xenon solutions were prepared by first bubbling pure gases (oxygen, nitrogen or xenon) through fine sintered-glass bubblers in 250- or 500-ml Drechsel bottles filled with extracellular recording saline. […] (To minimise oxidization, the neurotoxins and neurotransmitters were excluded from the fully oxygenated saline.) During bubbling, the solutions were continually stirred at room temperature. These solutions were then mixed to achieve the desired final concentrations of the gases. Our control solutions usually contained 80% of the nitrogen solution and 20% of the oxygen solution, while our test solutions usually contained 80% of the xenon solution and 20% of the oxygen solution. Using a Bunsen water/gas partition coefficient of 0.0965 (Smith R A et al, Biochim. Biophys. Acta 1981, 645:327-338) we calculate that our standard test solution contained 3.4 mM xenon. Xenon (research grade, 99.993% pure) was supplied by BOC gases, Guildford, Surrey, UK. In all cases xenon was pre-applied to the neurons for at least 30 seconds before the initiation of synaptic currents.
In order to obtain an estimate for the total charge transfer, the EPSCs or IPSCs were numerically integrated.

NMDA receptors = format: cell-based, rat; details: 80% xenon
humans, monkeys and rats = assay: MAC as free aqueous concentration, average of humans, monkeys and rats; format: in vivo; details: 37° C.
Method: as §1

[3] = excitatory currents + 3.4 mM xenon

With [Xe] [xenon] the “MAC converted to free aqueous concentration” value (rats) was 5.6 mM, the “synaptic plasticity induced by NMA (c Fos expression)” value [1] was “is inhibited” and the “effect on the fast AMPA/KA receptor-mediated component” value ([2]; 3.4 mM (80%) xenon) was “barely changes; also recorded: only a small effect”. For the same molecule, the “effect on the glutamatergic (excitatory) synaptic current” value ([2]; 3.4 mM xenon) was “strongly depressed; also recorded: greatly depressed”, the “Decay half-time % change (means ± SEM)” value [2, 3] was −22.7 ± 2.5% and the “Ifast % change (means ± SEM)” value [2, 3] was −4.1 ± 5.2%. The “Ipeak % change (means ± SEM)” value [2, 3] was −13.5 ± 1.8%, the “Islow % change (means ± SEM)” value [2, 3] was −70.3 ± 2.4% and the “Qfast % change (means ± SEM)” value [2, 3] was −11.4 ± 5.6%. The “Qslow % change (means ± SEM)” value [2, 3] was −68.2 ± 4.2%, the “Total charge transfer % change (means ± SEM)” value [2, 3] was −55.6 ± 2.7% and the “τfast % change (means ± SEM)” value [2, 3] was −12.3 ± 1.8%. The “τslow % change (means ± SEM)” value [2, 3] was −6.7 ± 6.5%, the “change of NMDA EC50 or Hill coefficient in presence of xenon” value (NMDA receptors) was “no significant change; also recorded: does not significantly change” and the “MAC as free aqueous concentration, average value” (humans, monkeys and rats) was 3.8 mM.
